Several values for one entry are separate records, joined by “and”; a condition that tells them apart may be missing. Equal entries are not always repeated.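 48-hour exposure; five concentrations; linearly interpolated endpoints. GI50: concentration for 50% inhibition of growth. TGI marks complete inhibition of growth.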
How the values were obtained:
Test in all cases: NCI anticancer screen, dose series, 48 h
[1] = system: 786-0 renal
[2] = system: A498 renal
[3] = system: A549 NSCLC
[4] = system: ACHN renal
[5] = system: CAKI-1 renal
[6] = system: CCRF-CEM leukemia
[7] = system: COLO 205 colon
[8] = system: DLD-1 colon
[9] = system: DMS 114 small cell lung
[10] = system: DMS 273 small cell lung
[11] = system: EKVX NSCLC
[12] = system: HCC-2998 colon
[13] = system: HCT-15 colon
[14] = system: HL-60(TB) leukemia
[15] = system: HOP-18 NSCLC
[16] = system: HOP-62 NSCLC
[17] = system: HT29 colon
[18] = system: IGROV1 ovarian
[19] = system: K-562 leukemia
[20] = system: KM12 colon
[21] = system: KM20L2 colon
[22] = system: LOX IMVI melanoma
[23] = system: LXFL 529 NSCLC
[24] = system: M14 melanoma
[25] = system: M19-MEL melanoma
[26] = system: MALME-3M melanoma
[27] = system: MOLT-4 leukemia
[28] = system: NCI-H226 lung
[29] = system: NCI-H23 lung
[30] = system: NCI-H460 lung
[31] = system: NCI-H522 lung
[32] = system: OVCAR-3 ovarian
[33] = system: OVCAR-4 ovarian
[34] = system: OVCAR-5 ovarian
[35] = system: OVCAR-8 ovarian
[36] = system: RPMI-8226 leukemia
[37] = system: RXF 393 renal
[38] = system: RXF-631 renal
[39] = system: SF-268 CNS
[40] = system: SF-295 CNS
[41] = system: SF-539 CNS
[42] = system: SK-MEL-2 melanoma
[43] = system: SK-MEL-28 melanoma
[44] = system: SK-MEL-5 melanoma
[45] = system: SK-OV-3 ovarian
[46] = system: SN12C renal
[47] = system: SNB-19 CNS
[48] = system: SNB-75 CNS
[49] = system: SW-620 colon
[50] = system: TK-10 renal
[51] = system: U251 CNS
[52] = system: UACC-62 melanoma
[53] = system: UO-31 renal
[54] = system: XF 498 CNS
[55] = system: HCT-116 colon
[56] = system: SNB-78 CNS
[57] = system: UACC-257 melanoma
[58] = system: BT-549 breast
[59] = system: DU-145 prostate
[60] = system: HS 578T breast
[61] = system: MDA-MB-231 breast
[62] = system: MDA-N
[63] = system: PC-3 prostate
[64] = system: T-47D breast
[65] = system: HOP-92 NSCLC
[66] = system: SR leukemia

## C=CCN=C1NC(=O)C(CC(=O)Nc2ccc(C)cc2)S1 (configuration not stated)
[1]
  TGI: > 100 µM
[2]
  TGI: > 100 µM
[3]
  TGI: > 100 µM
[4]
  TGI: > 100 µM
[5]
  TGI: > 100 µM
[6]
  TGI: > 100 µM
[7]
  TGI: > 100 µM
[8]
  TGI: > 100 µM
[9]
  TGI: > 100 µM
[10]
  TGI: > 100 µM
[11]
  TGI: > 100 µM
[12]
  TGI: > 100 µM
[13]
  TGI: > 100 µM
[14]
  TGI: > 100 µM
[15]
  TGI: > 100 µM
[16]
  TGI: > 100 µM
[17]
  TGI: > 100 µM
[18]
  TGI: > 100 µM
[19]
  TGI: > 100 µM
[20]
  TGI: > 100 µM
[21]
  TGI: > 100 µM
[22]
  TGI: > 100 µM
[23]
  TGI: > 100 µM
[24]
  TGI: > 100 µM
[25]
  TGI: > 100 µM
[26]
  TGI: > 100 µM
[27]
  TGI: > 100 µM
[28]
  TGI: > 100 µM
[29]
  TGI: > 100 µM
[30]
  TGI: > 100 µM
[31]
  TGI: > 100 µM
[32]
  TGI: > 100 µM
[33]
  TGI: > 100 µM
[34]
  TGI: > 100 µM
[35]
  TGI: > 100 µM
[36]
  TGI: > 100 µM
[37]
  TGI: > 100 µM
[38]
  TGI: > 100 µM
[39]
  TGI: > 100 µM
[40]
  TGI: > 100 µM
[41]
  TGI: > 100 µM
[42]
  TGI: > 100 µM
[43]
  TGI: > 100 µM
[44]
  TGI: > 100 µM
[45]
  TGI: > 100 µM
[46]
  TGI: > 100 µM
[47]
  TGI: > 100 µM
[48]
  TGI: > 100 µM
[49]
  TGI: > 100 µM
[50]
  TGI: > 100 µM
[51]
  TGI: > 100 µM
[52]
  TGI: > 100 µM
[53]
  TGI: > 100 µM
[54]
  TGI: > 100 µM

## O=C1C[C@@H]2CCCC[C@@H]2C12SCCS2
[1]
  TGI: > 100 µM
[2]
  TGI: > 100 µM
[3]
  TGI: > 100 µM
[4]
  TGI: > 100 µM
[5]
  TGI: > 100 µM
[6]
  TGI: > 100 µM
[7]
  TGI: > 100 µM
[8]
  TGI: > 100 µM
[9]
  TGI: > 100 µM
[10]
  TGI: > 100 µM
[11]
  TGI: > 100 µM
[12]
  TGI: > 100 µM
[55]
  TGI: > 100 µM
[13]
  TGI: > 100 µM
[14]
  TGI: > 100 µM
[16]
  TGI: > 100 µM
[18]
  TGI: > 100 µM
[19]
  TGI: > 100 µM
[20]
  TGI: > 100 µM
[22]
  TGI: > 100 µM
[23]
  TGI: > 100 µM
[25]
  TGI: > 100 µM
[26]
  TGI: > 100 µM
[27]
  TGI: > 100 µM
[29]
  TGI: > 100 µM
[30]
  TGI: > 100 µM
[31]
  TGI: > 100 µM
[32]
  TGI: > 100 µM
[33]
  TGI: > 100 µM
[34]
  TGI: > 100 µM
[35]
  TGI: > 100 µM
[36]
  TGI: > 100 µM
[37]
  TGI: > 100 µM
[38]
  TGI: > 100 µM
[39]
  TGI: > 100 µM
[40]
  TGI: > 100 µM
[41]
  TGI: > 100 µM
[42]
  TGI: > 100 µM
[43]
  TGI: > 100 µM
[44]
  TGI: > 100 µM
[45]
  TGI: > 100 µM
[46]
  TGI: > 100 µM
[47]
  TGI: > 100 µM
[48]
  TGI: > 100 µM
[56]
  TGI: > 100 µM
[49]
  TGI: > 100 µM
[50]
  TGI: > 100 µM
[51]
  TGI: > 100 µM
[57]
  TGI: > 100 µM
[52]
  TGI: > 100 µM
[53]
  TGI: > 100 µM
[54]
  TGI: > 100 µM

## Cc1cc2c(C(C)C)c(O)c(O)c(C=O)c2c(O)c1-c1c(C)cc2c(C(C)C)c(O)c(O)c(C=O)c2c1O
[58]
  TGI: 7.42 µM and 41.7 µM and 29.8 µM
[8]
  TGI: 15.5 µM
[9]
  TGI: 9.21 µM
[10]
  TGI: 18.3 µM
[59]
  TGI: 4.04 µM and 36.8 µM and 29.4 µM
[15]
  TGI: 11.3 µM
[60]
  TGI: 13.5 µM and 36 µM and 27.8 µM
[21]
  TGI: 11.4 µM
[23]
  TGI: 8.26 µM
[25]
  TGI: 11.4 µM
[61]
  GI50: 14.8 µM and 6.06 µM
  TGI: 34.5 µM and 16.6 µM
[62]
  TGI: > 100 µM
[63]
  TGI: 7.11 µM and 33.8 µM and 24.5 µM
[38]
  TGI: 25.3 µM
[43]
  GI50: 2.39 µM and 18 µM and 9.01 µM
[45]
  TGI: 8.26 µM and 50.9 µM and 31 µM
[56]
  TGI: 25.8 µM
[49]
  TGI: 30.8 µM [middle of 4 runs]
[64]
  TGI: 7.76 µM and 50.5 µM and 26.4 µM
[54]
  TGI: 5.55 µM

## [C-]#[N+]C(C)(C)C[C@H]1CC(C)C2CCC(C)C3([N+]#[C-])CCC(=C)C1[C@H]23 (some centres not stated)
[1]
  TGI: 15.3 µM
[2]
  TGI: 23.9 µM
[3]
  TGI: 21.7 µM
[4]
  TGI: 6.58 µM
[5]
  TGI: 20.1 µM
[6]
  TGI: > 50 µM
[7]
  TGI: 0.65 µM
[8]
  TGI: 9.29 µM
[10]
  TGI: 2.55 µM
[11]
  TGI: 35.8 µM
[12]
  TGI: 14.7 µM
[55]
  TGI: 6.6 µM
[14]
  TGI: 12.6 µM
[15]
  TGI: 14.4 µM
[16]
  TGI: 19.3 µM
[65]
  TGI: 0.256 µM
[17]
  TGI: 11.7 µM
[18]
  TGI: 47.4 µM
[19]
  TGI: > 50 µM
[20]
  TGI: 11.8 µM
[21]
  TGI: 11.6 µM
[22]
  TGI: 0.421 µM
[23]
  TGI: 23.4 µM
[24]
  TGI: 9.93 µM
[25]
  TGI: 9.43 µM
[26]
  TGI: 25.3 µM
[27]
  TGI: 5.25 µM
[28]
  TGI: 10.7 µM
[29]
  TGI: 19.6 µM
[31]
  TGI: 12.2 µM
[32]
  TGI: 14.1 µM
[33]
  TGI: 13.1 µM
[34]
  TGI: 8.49 µM
[35]
  TGI: 9.22 µM
[37]
  TGI: 10.5 µM
[38]
  TGI: 6.58 µM
[39]
  TGI: 10.5 µM
[40]
  TGI: 24.1 µM
[41]
  TGI: 13.7 µM
[42]
  TGI: 2.67 µM
[43]
  TGI: > 50 µM
[44]
  TGI: 5 µM
[45]
  TGI: 45.3 µM
[46]
  TGI: 8.85 µM
[47]
  TGI: 17.5 µM
[48]
  TGI: 49.7 µM
[56]
  TGI: 12 µM
[66]
  TGI: 8.74 µM
[49]
  TGI: 12.7 µM
[50]
  TGI: 21.4 µM
[51]
  TGI: 11.8 µM
[57]
  TGI: 10.9 µM
[52]
  TGI: 11.5 µM
[53]
  TGI: 8.66 µM
[54]
  TGI: 10.1 µM

From PubChem BioAssay (NCI)
